Values quoted from earlier work, collected in US6537523B1, “Diagnosis and treatment of cancer having clonal macrophage involvement” (The Regents of the University of California, priority 1994, dated 2003).

Tested on: HIV antigens in human blood cells including macrophages

## Trichosanthin
  expression of HIV antigens: inhibit expression of HIV antigens
